# Data as given in PubChem BioAssay (NCI).
#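 Following 48 hours of exposure in 96-well plates, responses at five concentrations were used to interpolate endpoints linearly. Here, GI50 denotes the concentration required for 50% inhibition of growth. TGI denotes the concentration required for complete inhibition of growth.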
# How the values were obtained:
# Assay in all cases: DTP human tumour cell line panel, 48 h
# [1] = tested on: SW-620 colon
# [2] = tested on: OVCAR-3 ovarian
# [3] = tested on: UACC-62 melanoma
# [4] = tested on: NCI-H23 lung
# [5] = tested on: CCRF-CEM leukemia
# [6] = tested on: NCI-H460 lung
# [7] = tested on: A498 renal
# [8] = tested on: NCI-H226 lung
# [9] = tested on: 786-0 renal
# [10] = tested on: MDA-MB-435
Compound,TGI [1] [µM],TGI [2] [µM],TGI [3] [µM],TGI [4] [µM],TGI [5] [µM],TGI [6] [µM],TGI [7] [µM],TGI [8] [µM],TGI [9] [µM],TGI [10] [µM],GI50 [1] [µM],GI50 [2] [µM],GI50 [8] [µM],GI50 [4] [µM],GI50 [5] [µM],GI50 [6] [µM],GI50 [7] [µM],GI50 [3] [µM],GI50 [10] [µM]
O=C(OCc1ccccc1)C(Cc1ccccc1)N(Cc1ccccc1)Cc1ccccc1 (stereo not given),> 100,> 100,> 100,> 100,> 100,> 100,> 100,,,,,,,,,,,,
CSC(SC)=C1C(=O)N(c2ccccc2)N=C1C,> 100,,89.9,,49.8,82.4,90.5,87.1,62,,,,,,,,,,
COC(=O)C1=C(O)C(C(=O)OC)[C@@]2(O)[C@@H](C(=O)OC)[C@H](C)[C@@H](C)[C@@H]1[C@@H]2C(=O)OC (stereo not given in full),,78.2,> 100,> 100,> 100,> 100,> 100,> 100,,39.2,,,,,,,,,
COc1cc([C@@H]2c3cc4c(cc3[C@@H](c3c(O)cc(O)c5c3O[C@H](c3ccc(O)c(O)c3)[C@@H](O)C5)[C@H]3COC(=O)[C@H]23)OCO4)cc(OC)c1O,> 100,> 100,> 100,> 100,> 100,> 100,> 100,,> 100,> 100,,,,,,,,,
CN(C)P(=O)(Oc1occc1C(O)Cc1ccccc1)N(C)C (stereo not given),> 100,> 100,,> 100,> 100,> 100,> 100,> 100,> 100,> 100,,,,,,,,,
COc1cc(CNc2nc3cc(C(F)(F)F)ccc3nc2-c2ccccc2)cc(OC)c1OC,> 100,> 100,33.3,> 100,> 100,> 100,,> 100,> 100,> 100,,,,,,,,,
COc1cc2c(c(O)c1O)-c1ccc(OC)c(=O)cc1C(NC(C)=O)CC2 (stereo not given),51.6,8.3,45.7,54.7,37.1,87.7,> 89.9,92.7,> 82.8,,,,,,,,,,
O=C1CCc2ccc3c(c21)CC1(Cc2ccccc2C1)C3,> 100,28.8,,> 100,> 100,20.6,,67.8,48.1,> 100,,,,,,,,,
CCN1C(=O)N(CC)C2Nn3c(s/c(=C4\C(=O)N(C)c5ccccc54)c3=O)=NC21 (stereo not given),> 100,> 100,,> 100,> 100,> 100,5.68,> 100,,,1.52,1.99,> 100,3.38,3.3,3.35,1.67,,
COc1ccc(-c2csc(NC(=O)CSc3nc(C)c(-c4ccccc4)n3Nc3ccccc3)n2)cc1,> 100,> 100,> 100,> 100,> 100,> 100,> 100,> 100,,> 100,51.9,9.61,> 100,4.96,3.92,7.41,31.2,7.35,5.77
Cc1c2ccncc2c(C)c2c1[nH]c1ccccc12,2.07,2.65,6.02,2.58,4.44,1.32,3.62,5.46,,2.21,,,,,,,,,0.762
CCOC(=O)C(C)c1nc2c(Cl)c3ncccc3cc2[nH]c1=O (stereo not given),> 100,> 100,> 100,> 100,68.4,,> 100,> 100,> 100,> 100,,,,,,,,,
OC1(c2ccc(Cl)cc2)c2ccc(CN3CCCC3)cc2C2=NCCN21 (stereo not given),26.5,31.7,28.1,31.2,30.7,29.1,25.8,,28.6,23.5,,,,,,,,,
O=C(c1ccccc1)N1C(=S)N=C(Nc2ccccc2)C1=Nc1ccccc1,> 100,,> 100,> 100,> 100,> 100,> 100,> 100,> 100,> 100,,,,,,,,,
CC1(C)OC2CC(=O)OCC23C1CC(=O)C1(C)C3CCC2(C)C(c3ccoc3)OC(=O)C3OC321 (stereo not given),> 125,> 125,> 125,> 125,> 125,> 125,> 125,> 125,,,,,,,,,,,
Cc1cn([C@H]2C[C@](C)(CO)N(C)O2)c(=O)[nH]c1=O,> 100,,> 100,> 100,,> 100,> 100,> 100,> 100,> 100,,,,,,,,,
C[C@]12CC[C@H](O)C=C1CC[C@@H]1[C@@H]2CC[C@]2(C)C(c3ccc(=O)oc3)CC[C@]12O (stereo not given in full),0.362,0.018,0.0378,0.023,0.151,0.0156,0.081,0.154,,,,,,,,,,,
O=C1CS(=O)C23c4cc5ccccc5n4CCC2CCCN13 (stereo not given),> 100,> 100,> 100,> 100,,,> 100,> 100,> 100,> 100,,,,,,,,,
CC(C)(C)OC(=O)n1c(-c2ccccc2F)cc(=O)c2cc3c(cc21)OCO3,> 100,> 100,> 100,> 100,11.1,> 70.8,> 94.7,,> 44.3,> 100,,,,,,,,,
O=C(O)CC(NC(=O)/C(=C/c1ccccc1O)NC(=O)c1ccccc1)C(=O)O (stereo not given),> 100,> 100,> 100,> 100,> 100,,> 100,> 100,> 100,> 100,,,,,,,,,
O=[N+]([O-])c1ccc(C2=Nc3ccccc3SC(c3ccccc3)C2)cc1 (stereo not given),27.8,,27.3,,37.2,43.9,47.9,54,,,,,,,,,,,
COC(=O)[C@H](C)NC(=O)[C@H](CSC)N1C(=O)N[C@@H](C(C)C)C1=O,> 100,> 100,> 100,> 100,> 100,> 100,,> 100,> 100,> 100,,,,,,,,,
